Reference: DBAASP
In brackets after ≈: the same amount, converted by molar mass. One block for each molecule: values may come before it.

How the values were obtained:
Test in all cases: ≥ marks a high value that may be exact or a test limit, other limits are often not marked, values filed in µg/mL are converted to µM
[1] = test system: Nocardia asteroides 201118
[2] = test system: Staphylococcus aureus ATCC 25923
[3] = test system: Acinetobacter baumannii ATCC 19606
[4] = test system: Escherichia coli ATCC 25922
[5] = test system: Escherichia coli ATCC 8739
[6] = test system: Klebsiella pneumoniae ATCC 13883
[7] = test system: Pseudomonas aeruginosa ATCC 47085
[8] = test system: Staphylococcus aureus ATCC 29213
[9] = test system: Candida albicans ATCC 90028
[10] = test system: Enterobacter cloacae HNTCC 53001
[11] = test system: Enterococcus faecalis ATCC 29212
[12] = test system: Klebsiella pneumoniae KK3 9904
[13] = test system: Proteus mirabilis ATCC 25933
[14] = test system: Pseudomonas aeruginosa ATCC 27853
[15] = test system: Staphylococcus aureus NCTC 8325
[16] = test system: Staphylococcus epidermidis RP62A
Bacillus subtilis = test system: Bacillus subtilis
Escherichia coli HB101 = test system: Escherichia coli HB101
Pseudomonas aeruginosa = test system: Pseudomonas aeruginosa
Salmonella typhimurium = test system: Salmonella typhimurium
Staphylococcus aureus = test system: Staphylococcus aureus
[17] = test system: Micrococcus luteus ATCC 4698
[18] = test system: Candida albicans ATCC 64550
[19] = test system: Pseudomonas aeruginosa ATCC 9027
[20] = test system: Staphylococcus aureus ATCC 29737
[21] = test system: Staphylococcus aureus USA 100
[22] = test system: Staphylococcus aureus USA 300
[23] = test system: Staphylococcus epidermidis ATCC 12228
[24] = test system: Staphylococcus aureus ATCC 33591
[25] = test system: Staphylococcus epidermidis ATCC 35984
Escherichia coli W160-37 = test system: Escherichia coli W160-37
[26] = test system: Corynebacterium glutamicum ATCC 13032
[27] = test system: Staphylococcus aureus ATCC 9144

SMILES: CC[C@H](C)[C@H](N)C(=O)N[C@@H](C)C(=O)N[C@@H](CCC(N)=O)C(=O)N[C@@H](CCC(N)=O)C(=O)N[C@@H](C)C(=O)N[C@@H](C)C(=O)N[C@@H](CC(N)=O)C(=O)N[C@H](C(=O)N[C@@H](C)C(=O)N[C@@H](C)C(=O)N[C@H](C(=O)N[C@@H](C)C(=O)N[C@@H](CCCN=C(N)N)C(=O)NCC(=O)O)[C@@H](C)O)C(C)C [IAQQAANVAATARG]
MIC [17]: 8.84 µM (≈ 11.9 µg/mL)

SMILES: CC[C@H](C)[C@H](N)C(=O)N[C@@H](CCCCN)C(=O)N[C@H](C(=O)N[C@@H](CCCCN)C(=O)N[C@H](C(=O)N[C@@H](CCCCN)C(=O)N[C@H](C(=O)N[C@@H](CCCCN)C(N)=O)[C@@H](C)CC)[C@@H](C)CC)[C@@H](C)CC [IKIKIKIK]
MIC [18]: 3.13 µM (≈ 3.07 µg/mL)
MIC [9]: 1.56 µM (≈ 1.53 µg/mL)
MIC [4]: 31.8 µM (≈ 31.3 µg/mL)
MIC [19]: 6.25 µM (≈ 6.14 µg/mL)
MIC [20]: ≥ 127 µM
MIC [21]: 25 µM (≈ 24.6 µg/mL)
MIC [22]: 25 µM (≈ 24.6 µg/mL)
MIC [23]: 2.03 µM (≈ 2 µg/mL)

SMILES: CC(C)[C@H](NC(=O)[C@H](Cc1ccccc1)NC(=O)[C@H](C)NC(=O)[C@H](CCCCN)NC(=O)CNC(=O)[C@H](Cc1ccccc1)NC(=O)[C@H](CCCCN)NC(=O)[C@H](CCCCN)NC(=O)[C@H](C)NC(=O)[C@H](CCCCN)NC(=O)[C@@H](N)CCCCN)C(=O)N[C@@H](CCCCN)C(N)=O [KKAKKFGKAFVK]
MIC [14]: > 371 µM
MIC [2]: > 371 µM
MIC [24]: ≥ 371 µM
MIC [25]: ≥ 371 µM

SMILES: CC(C)C[C@H](NC(=O)[C@H](CCCCN)NC(=O)[C@H](CCCCN)NC(=O)[C@H](Cc1ccccc1)NC(=O)[C@H](Cc1ccccc1)NC(=O)[C@H](CCCCN)NC(=O)[C@H](CCCCN)NC(=O)[C@H](C)NC(=O)[C@H](CCCN=C(N)N)NC(=O)[C@@H](N)CCCCN)C(=O)N[C@@H](CCCCN)C(N)=O [KRAKKFFKKLK]
MIC [18]: ≥ 100 µM

SMILES: NCCCC[C@H](NC(=O)[C@H](CO)NC(=O)[C@H](Cc1cnc[nH]1)NC(=O)[C@H](CCCN=C(N)N)NC(=O)[C@H](Cc1cnc[nH]1)NC(=O)[C@H](CO)NC(=O)[C@H](CCC(N)=O)NC(=O)[C@H](Cc1ccc(O)cc1)NC(=O)[C@@H](N)CC(N)=O)C(=O)N[C@@H](CO)C(=O)O [NYQSHRHSKS]
MIC [17]: ≥ 75 µM

Second part, the molecule after the results:

MIC [1]: 6.3 µM (≈ 11.5 µg/mL)
MIC [2]: 12.5 µM (≈ 22.8 µg/mL)
SMILES: CC[C@H](C)[C@H](NC(=O)[C@H](C)NC(=O)CNC(=O)[C@@H](NC(=O)[C@H](CC(C)C)NC(=O)[C@H](CC(C)C)NC(=O)[C@@H]1CCCN1C(=O)[C@H](CC(C)C)NC(=O)[C@@H](N)Cc1ccccc1)C(C)C)C(=O)N[C@@H](CO)C(=O)N[C@@H](CO)C(=O)N[C@H](C(=O)N[C@@H](CC(C)C)C(=O)N1CCC[C@H]1C(=O)N[C@@H](CCCCN)C(=O)N[C@H](C(=O)N[C@@H](Cc1ccccc1)C(N)=O)[C@@H](C)CC)[C@@H](C)CC [FLPLLVGAISSILPKIF]

MIC [3]: 4.1 µM (≈ 11.7 µg/mL)
MIC [4]: 6.3 µM (≈ 17.9 µg/mL)
MIC [5]: 4.52 µM (≈ 12.9 µg/mL)
MIC [6]: 3.5 µM (≈ 9.97 µg/mL)
MIC [7]: 4.9 µM (≈ 14 µg/mL)
MIC [8]: 3.83 µM (≈ 10.9 µg/mL)
SMILES: CC[C@H](C)[C@H](NC(=O)CN)C(=O)NCC(=O)N[C@@H](C)C(=O)N[C@H](C(=O)N[C@@H](CC(C)C)C(=O)N[C@@H](CCCCN)C(=O)N[C@H](C(=O)N[C@@H](CC(C)C)C(=O)N[C@H](C(=O)N[C@H](C(=O)NCC(=O)N[C@@H](CC(C)C)C(=O)N1CCC[C@H]1C(=O)N[C@@H](C)C(=O)N[C@@H](CC(C)C)C(=O)N[C@H](C(=O)N[C@@H](CO)C(=O)N[C@@H](Cc1c[nH]c2ccccc12)C(=O)N[C@H](C(=O)N[C@@H](CCCCN)C(=O)N[C@@H](CCCN=C(N)N)C(=O)N[C@@H](CCCCN)C(=O)N[C@@H](CCCN=C(N)N)C(=O)N[C@@H](CCC(N)=O)C(=O)N[C@@H](CCC(N)=O)C(=O)O)[C@@H](C)CC)[C@@H](C)CC)[C@@H](C)O)[C@@H](C)O)C(C)C)C(C)C [GIGAVLKVLTTGLPALISWIKRKRQQ]

MIC [9]: ≥ 80 µM
MIC [10]: 5 µM (≈ 13.5 µg/mL)
MIC [11]: > 80 µM
MIC [4]: 5 µM (≈ 13.5 µg/mL)
MIC [12]: 5 µM (≈ 13.5 µg/mL)
MIC [13]: ≥ 80 µM
MIC [14]: 5 µM (≈ 13.5 µg/mL)
MIC [15]: 20 µM (≈ 54 µg/mL)
MIC [16]: 10 µM (≈ 27 µg/mL)
SMILES: CC[C@H](C)[C@H](NC(=O)CNC(=O)[C@H](CCCCN)NC(=O)[C@H](Cc1ccccc1)NC(=O)[C@@H](NC(=O)[C@H](CCCCN)NC(=O)[C@H](CCCCN)NC(=O)[C@H](CC(C)C)NC(=O)[C@H](C)NC(=O)[C@H](CCCCN)NC(=O)[C@H](CC(C)C)NC(=O)CN)C(C)C)C(=O)N[C@@H](Cc1cnc[nH]1)C(=O)N[C@@H](CCCCN)C(=O)N[C@@H](C)C(=O)N[C@H](C(=O)N[C@@H](CCCCN)C(=O)N[C@@H](CC(C)C)C(=O)N[C@H](C(=O)N[C@@H](CC(N)=O)C(=O)N[C@@H](CC(N)=O)C(=O)N[C@@H](Cc1cnc[nH]1)C(=O)N[C@H](C(=O)N[C@@H](CCC(N)=O)C(=O)O)C(C)C)[C@@H](C)CC)[C@@H](C)CC [GLKALKKVFKGIHKAIKLINNHVQ]

MIC (Bacillus subtilis): 5.2 µM (≈ 12.4 µg/mL)
MIC (Escherichia coli HB101): 2.6 µM (≈ 6.18 µg/mL)
MIC (Pseudomonas aeruginosa): 5.2 µM (≈ 12.4 µg/mL)
MIC (Salmonella typhimurium): 1.3 µM (≈ 3.09 µg/mL)
MIC (Staphylococcus aureus): 20.8 µM (≈ 49.4 µg/mL)
SMILES: CC[C@H](C)[C@H](NC(=O)[C@@H](NC(=O)[C@@H]1CCCN1C(=O)[C@@H](NC(=O)[C@@H]1CCCN1C(=O)[C@H](CCCCN)NC(=O)[C@H](CCCCN)NC(=O)[C@H](CO)NC(=O)CN)C(C)C)[C@@H](C)CC)C(=O)N[C@@H](Cc1ccc(O)cc1)C(=O)N[C@H]1CSSC[C@@H](C(=O)N[C@@H](CCC(N)=O)C(=O)N[C@@H](CCCN=C(N)N)C(=O)N[C@@H](CCSC)C(=O)O)NC(=O)[C@H](CCCCN)NC(=O)[C@H]([C@@H](C)O)NC(=O)[C@H](CCCN=C(N)N)NC(=O)[C@H](CCCN=C(N)N)NC(=O)[C@H](CC(N)=O)NC1=O [GSKKPVPIIYCNRRTKCQRM]

MIC (Escherichia coli W160-37): 25 µM (≈ 36.1 µg/mL)
MIC (Staphylococcus aureus): 14 µM (≈ 20.2 µg/mL)
SMILES: CC[C@H](C)[C@H](NC(=O)[C@H](Cc1c[nH]c2ccccc12)NC(=O)[C@H](CCCCN)NC(=O)[C@H](CC(C)C)NC(=O)[C@H](Cc1ccccc1)NC(=O)[C@@H](NC(=O)[C@H](CCCCN)NC(=O)[C@H](CC(C)C)NC(=O)[C@H](CC(C)C)NC(=O)[C@H](CCCCN)NC(=O)[C@@H]1CCCN1)[C@@H](C)O)C(=O)NCC(=O)O [PKLLKTFLKWIG]

MIC [26]: 0.8 µM (≈ 2.19 µg/mL)
MIC [4]: 6.3 µM (≈ 17.3 µg/mL)
MIC (Escherichia coli HB101): 3.1 µM (≈ 8.5 µg/mL)
MIC [14]: 12.5 µM (≈ 34.3 µg/mL)
MIC [27]: ≥ 100 µM
SMILES: CC[C@H](C)[C@H](NC(=O)[C@@H]1CCCN1C(=O)[C@H](CCCCN)NC(=O)[C@@H]1CCCN1C(=O)[C@H](CCCN=C(N)N)NC(=O)CNC(=O)[C@@H]1CCCN1C(=O)[C@H](Cc1ccccc1)NC(=O)[C@@H]1CCCN1C(=O)[C@H](CCCN=C(N)N)NC(=O)[C@@H]1CCCN1C(=O)[C@H](CCCN=C(N)N)NC(=O)CNC(=O)[C@@H]1CCCN1C(=O)[C@H](CO)NC(=O)[C@@H]1CCCN1C(=O)[C@H](Cc1c[nH]c2ccccc12)NC(=O)[C@H](CCCN=C(N)N)NC(=O)[C@@H](N)CO)C(=O)N[C@@H](Cc1ccccc1)C(=O)N[C@@H](CCCN=C(N)N)C(=O)N1CCC[C@H]1C(=O)N[C@@H](CCCN=C(N)N)C(=O)O [SRWPSPGRPRPFPGRPKPIFRPR]
